In BindingDB's records for doi:10.7270/Q2319T8T (The Scripps Research Institute Molecular Screening Center, 2007):
pIC50: −log10 of the molar value.

Biological target: Steroidogenic factor 1 (Homo sapiens, UniProt Q13285)
Assay: SF-1 inhibitor potency, dose response, cell-based, CHO-K1, Gal4-SF-1 LBD, luciferase luminescence (AID 600)
[1] = inactive by the depositor's call

Chain of Steroidogenic factor 1 (Q13285 whole entry, the tested form may be a part): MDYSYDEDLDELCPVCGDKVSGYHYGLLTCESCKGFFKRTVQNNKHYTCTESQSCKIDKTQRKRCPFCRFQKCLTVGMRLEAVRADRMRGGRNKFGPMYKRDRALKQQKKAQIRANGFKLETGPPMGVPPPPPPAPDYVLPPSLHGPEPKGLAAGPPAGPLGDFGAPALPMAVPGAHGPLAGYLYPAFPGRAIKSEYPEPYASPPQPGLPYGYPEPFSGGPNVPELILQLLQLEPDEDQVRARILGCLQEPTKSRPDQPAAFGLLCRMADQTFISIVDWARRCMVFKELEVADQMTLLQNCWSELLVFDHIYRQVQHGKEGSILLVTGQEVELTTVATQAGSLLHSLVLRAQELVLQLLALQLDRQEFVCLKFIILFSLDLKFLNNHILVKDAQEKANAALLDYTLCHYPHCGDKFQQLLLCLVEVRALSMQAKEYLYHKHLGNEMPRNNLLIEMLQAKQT

| Structure (SMILES) | pIC50 | pIC50 [1] |
| --- | --- | --- |
| Cc1ccc(-c2cc(C(=O)N3CCCC3)no2)cc1 [5-(4-methylphenyl)-3-(1-pyrrolidinylcarbonyl)isoxazole] | < 5.44 | – |
| Cc1ccc(-c2nc(-c3ccccn3)no2)cc1 [5-(4-methylphenyl)-3-(2-pyridinyl)-1,2,4-oxadiazole] | 5.90 | – |
| Cc1ccc(-c2nnc(Nc3ccccc3)o2)cc1 [5-(4-methylphenyl)-N-phenyl-1,3,4-oxadiazol-2-amine] | 5.29 | – |
| Oc1c(CN2CCOCC2)cc(COCc2ccccc2)c2cccnc12 [5-(benzoxymethyl)-7-(morpholinomethyl)quinolin-8-ol] | 5.22 | – |
| Oc1c(CN2CCCCC2)cc(COCc2ccccc2)c2cccnc12 [5-(benzoxymethyl)-7-(piperidinomethyl)quinolin-8-ol] | – | 4.57 |
| COCc1cc(CN2CCCC2)c(O)c2ncccc12 [5-(methoxymethyl)-7-(1-pyrrolidinylmethyl)-8-quinolinol] | 5.38 | – |
| Cc1cnc(C(=O)Nc2cccc3cccnc23)cn1 [5-Methyl-pyrazine-2-carboxylic acid quinolin-8-ylamide] | 5.05 | – |
| FC(F)(F)c1ccc(N2CCN(c3cc(-c4ccccc4)nc4ncnn34)CC2)nc1 [5-Phenyl-7-[4-(5-trifluoromethyl-pyridin-2-yl)-piperazin-1-yl]-[1,2,4]triazolo[1,5-a]pyrimidine] | – | 4.67 |
| CCOC(=O)c1oc2ccc(S(=O)(=O)Nc3ccc4c(c3)n(C)c(=O)n4C)cc2c1C [5-[(1,3-dimethyl-2-oxo-5-benzimidazolyl)sulfamoyl]-3-methyl-2-benzofurancarboxylic acid ethyl ester] | – | 4.59 |
| COc1cccc(CNC(=O)c2nnn(CC(=O)Nc3ccc(C)c(C)c3)c2N)c1 [5-amino-1-[2-(3,4-dimethylanilino)-2-keto-ethyl]-N-m-anisyl-triazole-4-carboxamide] | 5.06 | – |
| Oc1c(CN2CCCCC2)cc(Br)c2cccnc12 [5-bromanyl-7-(piperidin-1-ylmethyl)quinolin-8-ol] | < 5.44 | – |
| O=S(=O)(NCc1ccncc1)c1ccc(Br)s1 [5-bromanyl-N-(pyridin-4-ylmethyl)thiophene-2-sulfonamide] | 6.97 | – |
| Oc1c(CN2CCN(c3ccccn3)CC2)cc(Cl)c2cccnc12 [5-chloranyl-7-[(4-pyridin-2-ylpiperazin-1-yl)methyl]quinolin-8-ol] | 5.12 | – |
| O=C(Nc1nc(-c2ccccn2)cs1)c1ccc(Cl)s1 [5-chloranyl-N-(4-pyridin-2-yl-1,3-thiazol-2-yl)thiophene-2-carboxamide] | < 5.44 | – |
| Cc1ccc(S(=O)(=O)Nc2cccc3ncccc23)s1 [5-methyl-N-quinolin-5-ylthiophene-2-sulfonamide] | 5.24 | – |
| Cn1nc(C(C)(C)C)cc1C(=O)NCc1ccc(N2CCCC2=O)cc1 [5-tert-Butyl-2-methyl-2H-pyrazole-3-carboxylic acid 4-(2-oxo-pyrrolidin-1-yl)-benzylamide] | 5.04 | – |
| O=S1(=O)Nc2c(ccc3cccnc23)-c2ccccc21 [5H-quinolino[8,7-c][1,2]benzothiazine 6,6-dioxide] | 5.26 | – |
| C[C@@]1(CO)[C@H](O)CC[C@@]2(C)[C@H]1CC[C@H]1C[C@@H]3C[C@@]12CC[C@]3(O)CO [6,13-di(hydroxymethyl)-2,6-dimethyl-(1S,2S,5R,6R,7R,10S,12R,13R)-tetracyclo[10.3.1.01,10.02,7]hexadecane-5,13-diol (Aphidicolin)] | 6.26 | – |
| COC(=O)C1C(=CN2CCCc3ccccc32)NC(=O)NC1c1ccc(F)cc1 (stereo unspecified) [6-(3,4-dihydro-2H-quinolin-1-ylmethyl)-4-(4-fluorophenyl)-2-keto-3,4-dihydro-1H-pyrimidine-5-carboxylic acid methyl ester] | 5.27 | – |
| Cc1cc(C)n(-c2nc(NC(C)C)nc(NC(C)C)n2)n1 [6-(3,5-Dimethyl-pyrazol-1-yl)-N,N'-diisopropyl-[1,3,5]triazine-2,4-diamine] | 5.08 | – |
| C[S+]([O-])c1nc(-c2ccc(Br)cc2)cc(-c2ccccc2)c1C#N (stereo unspecified) [6-(4-bromophenyl)-2-(methylsulfinyl)-4-phenylnicotinonitrile] | 5.28 | – |
